Data from patent US8686152B2, “4,4-disubstituted piperidine derivatives useful as inhibitors of dipeptidyl peptidase-1 (DPP-1)” (Janssen Pharmaceutica NV, priority 2010, dated 2014).
pIC50: −log10 of the molar value.

Target: T1, recombinant human DPP-1 (Cathepsin C) (Homo sapiens, UniProt P53634)
T1 construct: made in house
Experiment: DPP-1 Inhibition Assay (In Vitro), fluorogenic substrate GR-AMC
Assay type: biochemical
Details: 0.15 nM DPP-1, 10 uM GR-AMC, pH 7.0, room temperature; average value where tested multiple times
Method: Test compounds were assessed for DPP-1 (Cathepsin C) inhibitory activity using a fluorogenic substrate, GR-AMC (Glycine-Arginine-amino-4-methylcoumarin, Bachem, I-1215). The amount of amino-methylcoumarin released is proportional to the DPP-1 activity, and the reaction is monitored kinetically with a Molecular Devices plate reader using black 96-well plates.
All compounds were tested under room temperature conditions. The assay buffer consisted of 50 mM HEPES, pH 7.0, 100 mM NaCl, 2 mM glutathione (GSH), and 0.002% TWEEN 20. GSH and TWEEN 20 were added to the buffer fresh daily. Just prior to use, an in-house preparation of recombinant human DPP-1 (240 μM stock, MW 49.6 kD) was diluted 600-fold in assay buffer containing fresh 2 mM dithiothreitol (DTT) to activate the enzyme, then diluted into assay buffer (without DTT) 133-fold for a DPP-1 working solution of 3 nM. Test compounds were diluted in DMSO for 20× their final assay concentrations.
Additions to a 96-well black Costar 3915 plates were as follows: 90 μL of 11 μM GR-AMC, 5 μL test compound (followed by mixing), and 5 μL 3 nM DPP-1 to start the reaction. Fluorescent reactions were monitored kinetically at 360 nm excitation, 440 nm emission on a Molecular Devices Spectramax XPS reader. The Softmax Pro software of the reader determined the initial velocity of the selected data (the first 3-5 minutes of the reaction), and the best linear regression fit of the initial kinetic data. Final assay conditions were 0.15 nM DPP-1, 10 uM GR-AMC, 50 mM HEPES, pH 7.0, 100 mM NaCl, 2 mM GSH, 0.002% TWEEN 20, 1 uM DTT, 5.0% DMSO. Initial velocity rates were plotted vs. test compound concentration by use of a four-parameter logistics equation (nonlinear regression, sigmoidal dose-response (variable slope), with fixed Hill (1.0) using GraphPad Prism® software for determination of DPP-1 IC50. Within-run assay coefficient of variation (CV) was generally <10%; between-run CV <20%.
Representative compounds of the present invention were tested according to the procedure as described above, with results as listed in Table 5, below.

T1 sequence (P53634 25-463): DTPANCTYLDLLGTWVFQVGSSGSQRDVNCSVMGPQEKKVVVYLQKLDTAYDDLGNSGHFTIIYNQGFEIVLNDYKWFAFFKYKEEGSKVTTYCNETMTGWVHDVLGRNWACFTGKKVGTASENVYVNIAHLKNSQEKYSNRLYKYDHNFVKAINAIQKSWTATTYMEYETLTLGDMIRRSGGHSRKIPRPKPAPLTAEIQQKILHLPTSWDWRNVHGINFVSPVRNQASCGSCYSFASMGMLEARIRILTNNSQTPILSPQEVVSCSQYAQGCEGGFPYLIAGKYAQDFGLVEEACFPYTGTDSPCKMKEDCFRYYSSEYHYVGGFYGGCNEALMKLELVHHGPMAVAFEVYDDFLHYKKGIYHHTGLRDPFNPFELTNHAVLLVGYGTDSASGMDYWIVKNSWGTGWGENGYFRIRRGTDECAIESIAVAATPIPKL

Row | pIC50 | Structure (SMILES)
1 | 6.06 | N[C@@H](Cc1cccs1)C(=O)N1CCC(Cc2cccc(-c3ccccc3)c2)(C(=O)OCC2CCCCC2)CC1 [Compound 30]
2 | 7.28 | CC(=O)Nc1ccccc1-c1ccc(CC2(C(=O)NC3CCCCC3)CCN(C(=O)[C@@H](N)Cc3cccs3)CC2)cc1 [Compound 45]
3 | 6.44 | N[C@@H](Cc1cccs1)C(=O)N1CCC(Cc2ccc(C(=O)O)cc2)(C(=O)NC2CCCCC2)CC1 [Compound 62]
4 | 6.51 | N[C@@H](Cc1cccs1)C(=O)N1CCC(C(=O)NC2CCOCC2)(c2ccccc2)CC1 [Compound 103]
5 | 5.89 | N[C@@H](Cc1cccs1)C(=O)N1CCC(Cc2ccncc2)(C(=O)N2CCOCC2)CC1 [Compound 122]
6 | 5.52 | CC[C@H](N)C(=O)N1CCC(Cc2ccc(-c3ccccc3)cc2)(C(=O)NCC2CCCCC2)CC1 [Compound 5]
7 | 6.37 | N[C@@H](Cc1cccs1)C(=O)N1CCC(Cc2ccc(-c3ccccc3)cc2)(C(=O)N2CCCCC2)CC1 [Compound 4]
8 | 7.80 | CN(CC1CCCCC1)C(=O)C1(c2ccccc2)CCN(C(=O)[C@@H](N)Cc2cccs2)CC1 [Compound 134]
9 | 5.21 | CC[C@H](N)C(=O)N1CCC(Cc2ccc(F)cc2F)(C(=O)OCC2CCCCC2)CC1 [Compound 26]
10 | 6.66 | N[C@@H](Cc1cccs1)C(=O)N1CCC(Cc2ccc(F)cc2F)(C(=O)OCC2CCCCC2)CC1 [Compound 27]
11 | 7.25 | COc1cccc(CC2(C(=O)NC3CCCCC3)CCN(C(=O)[C@@H](N)Cc3cccs3)CC2)c1 [Compound 84]
12 | 7.14 | N[C@@H](Cc1cccs1)C(=O)N1CCC(Cc2ccc(C(=O)N3CCCC3)cc2)(C(=O)NC2CCCCC2)CC1 [Compound 58]
13 | 7.54 | COc1ccc(-c2ccc(CC3(C(=O)NC4CCCCC4)CCN(C(=O)[C@@H](N)Cc4cccs4)CC3)cc2)cn1 [Compound 44]
14 | 6.64 | N[C@@H](Cc1nccs1)C(=O)N1CCC(Cc2ccc(-c3ccccc3)cc2)(C(=O)NC2CCCCC2)CC1 [Compound 33]
15 | 6.96 | N#Cc1ccccc1CC1(C(=O)NC2CCCCC2)CCN(C(=O)[C@@H](N)Cc2cccs2)CC1 [Compound 82]
16 | 5.13 | CC[C@H](N)C(=O)N1CCC(Cc2ccncc2)(C(=O)OCC2CCCCC2)CC1 [Compound 21]
17 | 6.70 | N[C@@H](Cc1cccs1)C(=O)N1CCC(C(=O)NC[C@H]2CC[C@H](C(=O)O)CC2)(c2ccccc2)CC1 [Compound 112]
18 | 7.51 | CC(=O)Nc1cccc(-c2ccc(CC3(C(=O)NC4CCCCC4)CCN(C(=O)[C@@H](N)Cc4cccs4)CC3)cc2)c1 [Compound 54]
19 | 7.43 | N[C@@H](Cc1cccs1)C(=O)N1CCC(Cc2ccc(I)cc2)(C(=O)NC2CCCCC2)CC1 [Compound 41]
20 | 7.54 | N[C@@H](Cc1cccs1)C(=O)N1CCC(Cc2ccc(-c3ccncc3)cc2)(C(=O)NC2CCCCC2)CC1 [Compound 42]
21 | 5.30 | CC[C@H](N)C(=O)N1CCC(Cc2ccncc2)(C(=O)NC2CCCCC2)CC1 [Compound 72]

Row | pIC50 | Structure (SMILES)
22 | 7.34 | N#Cc1ccc(-c2ccc(CC3(C(=O)NC4CCCCC4)CCN(C(=O)[C@@H](N)Cc4cccs4)CC3)cc2)cc1 [Compound 99]
23 | 5.74 | COC(=O)C1(Cc2ccc(-c3ccccc3)cc2)CCN(C(=O)[C@@H](N)Cc2cccs2)CC1 [Compound 1]
24 | 7.27 | N[C@@H](Cc1cccs1)C(=O)N1CCC(Cc2cccnc2)(C(=O)NC2CCCCC2)CC1 [Compound 66]
25 | 5.55 | N[C@@H](Cc1c[nH]cn1)C(=O)N1CCC(C(=O)NC2CCCCC2)(c2ccccc2)CC1 [Compound 75]
26 | 5.92 | N#Cc1ccc(CC2(C(=O)OCC3CCCCC3)CCN(C(=O)[C@@H](N)Cc3c[nH]cn3)CC2)cc1 [Compound 16]
27 | 7.40 | N[C@@H](Cc1cccs1)C(=O)N1CCC(Cc2ccccc2)(C(=O)NC2CCCCC2)CC1 [Compound 86]
28 | 7.31 | N[C@@H](Cc1cccs1)C(=O)N1CCC(Cc2ccc(C(=O)NC3CCCCC3)cc2)(C(=O)NC2CCCCC2)CC1 [Compound 56]
29 | 7.39 | Cc1ccc(C2(C(=O)NCC3CCOCC3)CCN(C(=O)[C@@H](N)Cc3cccs3)CC2)cc1 [Compound 130]
30 | 6.46 | N[C@@H](Cc1cccs1)C(=O)N1CCC(Cc2ccc(Cl)cc2)(C(=O)OCC2CCCCC2)CC1 [Compound 14]
31 | 5.25 | N[C@@H](Cc1cc(Br)cs1)C(=O)N1CCC(Cc2ccc(I)cc2)(C(=O)NC2CCCCC2)CC1 [Compound 92]
32 | < 5.00 | N[C@@H](Cc1cccs1)C(=O)N1CCC(Cc2ccc(-c3ccccc3)cc2)(C(=O)O)CC1 [Compound 2]
33 | 7.08 | N[C@@H](Cc1cccs1)C(=O)N1CCC(Cc2cccc(I)c2)(C(=O)NC2CCCCC2)CC1 [Compound 96]
34 | 6.40 | N[C@@H](Cc1cccs1)C(=O)N1CCC(Cc2ccc(C(F)(F)F)cc2)(C(=O)OCC2CCCCC2)CC1 [Compound 19]
35 | 5.02 | CC[C@H](N)C(=O)N1CCC(Cc2cccc(OC)c2)(C(=O)NC2CCCCC2)CC1 [Compound 83]
36 | 7.62 | N[C@@H](Cc1cccs1)C(=O)N1CCC(Cc2ccc([N+](=O)[O-])cc2)(C(=O)NC2CCCCC2)CC1 [Compound 81]
37 | 7.08 | N[C@@H](Cc1cccs1)C(=O)N1CCC(Cc2ccc(-c3nnn[nH]3)cc2)(C(=O)NCC2CCCCC2)CC1 [Compound 127]
38 | 6.66 | N[C@@H](Cc1cccs1)C(=O)N1CCC(Cc2ccccc2)(C(=O)OCC2CCCCC2)CC1 [Compound 11]
39 | 7.20 | Nc1ccc(CC2(C(=O)NC3CCCCC3)CCN(C(=O)[C@@H](N)Cc3cccs3)CC2)cc1 [Compound 95]
40 | 5.36 | CC[C@H](N)C(=O)N1CCC(Cc2ccc(C#N)cc2)(C(=O)OCC2CCCCC2)CC1 [Compound 17]
41 | 7.00 | N[C@@H](Cc1cccs1)C(=O)N1CCC(Cc2cccnc2)(C(=O)OCC2CCCCC2)CC1 [Compound 24]
42 | 7.00 | N[C@@H](Cc1cccs1)C(=O)N1CCC(Cc2ccc(-c3ccc(C(=O)O)cc3)cc2)(C(=O)NC2CCCCC2)CC1 [Compound 52]

Row | pIC50 | Structure (SMILES)
43 | 7.03 | N[C@@H](Cc1cccs1)C(=O)N1CCC(Cc2ccncc2)(C(=O)OCC2CCCCC2)CC1 [Compound 22]
44 | 7.41 | N[C@@H](Cc1cccs1)C(=O)N1CCC(Cc2cccc(-c3cncnc3)c2)(C(=O)NC2CCCCC2)CC1 [Compound 97]
45 | 7.00 | N[C@@H](Cc1cccs1)C(=O)N1CCC(Cc2ccc(-c3cccc(C(=O)O)c3)cc2)(C(=O)NC2CCCCC2)CC1 [Compound 55]
46 | 7.77 | Cc1ccc(C2(C(=O)NCC3CCCCC3)CCN(C(=O)[C@@H](N)Cc3cccs3)CC2)cc1 [Compound 129]
47 | 6.92 | N[C@@H](Cc1cccs1)C(=O)N1CCC(Cc2cccc(-c3ccc(C(F)(F)F)cc3)c2)(C(=O)NC2CCCCC2)CC1 [Compound 100]
48 | 5.04 | CC[C@H](N)C(=O)N1CCC(Cc2cccnc2)(C(=O)NC2CCCCC2)CC1 [Compound 67]
49 | 6.66 | N[C@@H](Cc1cccs1)C(=O)N1CCC(C(=O)NC2=NCCS2)(c2ccccc2)CC1 [Compound 114]
50 | 7.43 | N[C@@H](Cc1cccs1)C(=O)N1CCC(Cc2ccncc2)(C(=O)NC2CCCCC2)CC1 [Compound 71]
51 | 7.14 | N[C@@H](Cc1cccs1)C(=O)N1CCC(C(=O)NC2CCCCC2)(c2ccccc2)CC1 [Compound 69]
52 | 6.22 | N#CC[C@H](N)C(=O)N1CCC(Cc2ccc(-c3ccccc3)cc2)(C(=O)NC2CCCCC2)CC1 [Compound 36]
53 | 6.70 | N[C@@H](Cc1cccs1)C(=O)N1CCC(C(=O)N[C@H]2CC[C@H](C(=O)O)CC2)(c2ccccc2)CC1 [Compound 115]
54 | 6.64 | N[C@@H](Cc1ccco1)C(=O)N1CCC(Cc2ccc(-c3ccccc3)cc2)(C(=O)NC2CCCCC2)CC1 [Compound 37]
55 | 5.77 | N[C@@H](Cc1c[nH]cn1)C(=O)N1CCC(Cc2ccc(F)cc2F)(C(=O)OCC2CCCCC2)CC1 [Compound 28]
56 | 7.48 | N[C@@H](Cc1cccs1)C(=O)N1CCC(Cc2ccc(C(=O)Nc3ccccc3)cc2)(C(=O)NC2CCCCC2)CC1 [Compound 60]
57 | 4.74 | COC[C@H](N)C(=O)N1CCC(Cc2ccc(-c3ccccc3)cc2)(C(=O)NC2CCCCC2)CC1 [Compound 39]
58 | 7.46 | N[C@@H](Cc1cccs1)C(=O)N1CCC(Cc2ccc(-c3ccccc3)cc2)(C(=O)NC2CCCCC2)CC1 [Compound 8]
59 | 6.72 | N[C@@H](Cc1cccs1)C(=O)N1CCC(Cc2cccc(-c3ccc(C(=O)O)cc3)c2)(C(=O)NC2CCCCC2)CC1 [Compound 102]
60 | 7.12 | N[C@@H](Cc1cccs1)C(=O)N1CCC(C(=O)NCC2CCOCC2)(c2ccccc2)CC1 [Compound 104]
61 | 7.46 | N[C@@H](Cc1cccs1)C(=O)N1CCC(Cc2ccc(-c3cccnc3)cc2)(C(=O)NC2CCCCC2)CC1 [Compound 50]
